Assay results reported in patent publication US20080200442A1, “Compositions and Methods for Treating, Reducing, Ameliorating, or Preventing Infections of the Ear or Upper Respiratory Tract” (priority 2007, published 2008).
≈ marks a conversion by molar mass, not a printed value.

Assays:
Type in all cases: cell-based
[1] = tested on: Peptostreptococcus micros (GIFU 7824); test: In vitro anti-bacterial activity (MIC90), anaerobic reference bacteria; conditions: Parvimonas micra
Pseudomonas aeruginosa = test: In vitro anti-bacterial activity (MIC90), ophthalmologic clinical bacteria isolates; conditions: Gram-negative
[2] = tested on: Penicillin-resistant Streptococcus pneumoniae; test: as above
[3] = tested on: Salmonella typhimurium (TD); test: In vitro anti-bacterial activity (MIC90), Gram-negative reference strains
Protocol: Anti-bacterial activity of the compound having Formula III was tested against several Gram-negative reference bacteria strains and compared to the anti-bacterial activity of three commercially available antibiotics (nadifloxacin, ofloxacin, and sparfloxacin).

[4] = tested on: Propionibacterium acnes (ATCC 6919); test: In vitro anti-bacterial activity (MIC90), anaerobic reference bacteria; conditions: Cutibacterium acnes, ATCC6919
[5] = tested on: Veillonella parvula (GAI 5602); test: as above
[6] = tested on: Staphylococcus aureus (No. 415); test: In vitro anti-bacterial activity (MIC90), methicillin-resistant Staphylococcus aureus isolates; conditions: methicillin-resistant Staphylococcus aureus (No. 415)
Protocol: (§1) Anti-bacterial activity of the compound having Formula III was tested against several Gram-negative reference bacteria strains and compared to the anti-bacterial activity of three commercially available antibiotics (nadifloxacin, ofloxacin, and sparfloxacin). The results are shown in Table 2 as MIC90 values (minimum concentration of the active compound required to inhibit ninety percent of the growth of a specified pathogen, in μg/ml).
(§2) Anti-bacterial activity of the compound having Formula III was tested against some methicillin-resistant Staphylococcus aureus bacteria strains and compared to the anti-bacterial activity of three commercially available antibiotics (nadifloxacin, ofloxacin, and sparfloxacin).

[7] = tested on: Staphylococcus aureus (No. 421); test: as above; conditions: methicillin-resistant Staphylococcus aureus (No. 421)
Protocol: as §1, §2

[8] = tested on: Staphylococcus aureus (ATCC 33593); test: as above; conditions: ATCC33593; methicillin-resistant Staphylococcus aureus (ATCC 33593)
Protocol: as §1, §2

[9] = tested on: Staphylococcus aureus (ATCC 33592); test: as above; conditions: ATCC33592; methicillin-resistant Staphylococcus aureus (ATCC 33592)
Protocol: as §1, §2

[10] = tested on: Staphylococcus aureus (No. 419); test: as above; conditions: methicillin-resistant Staphylococcus aureus (No. 419)
Protocol: as §1, §2

[11] = tested on: Staphylococcus aureus (ATCC 33591); test: as above; conditions: ATCC33591; methicillin-resistant Staphylococcus aureus (ATCC 33591)
Protocol: as §1, §2

[12] = tested on: Staphylococcus aureus (No. 395); test: as above; conditions: methicillin-resistant Staphylococcus aureus (No. 395)
Protocol: as §1, §2

[13] = tested on: Staphylococcus aureus (No. 420); test: as above; conditions: methicillin-resistant Staphylococcus aureus (No. 420)
Protocol: as §1, §2

Streptococcus pneumoniae = test: In vitro anti-bacterial activity (MIC90), ophthalmologic clinical bacteria isolates; conditions: Gram-positive
[14] = tested on: Propionibacterium acnes (GAI 5419); test: In vitro anti-bacterial activity (MIC90), anaerobic reference bacteria; conditions: Cutibacterium acnes
[15] = tested on: Coagulase-negative Staphylococcus; test: In vitro anti-bacterial activity (MIC90), ophthalmologic clinical bacteria isolates; conditions: Gram-positive
Propionibacterium acnes = test: as above; conditions: Cutibacterium acnes, Gram-positive
[16] = tested on: Propionibacterium acnes (ATCC 11828); test: In vitro anti-bacterial activity (MIC90), anaerobic reference bacteria; conditions: Cutibacterium acnes, ATCC11828
[17] = tested on: Bacteroides fragillis (GAI 0675); test: as above
[18] = tested on: Bacteroides thetaiotaomicron (GAI 0659); test: as above; conditions: Bacteroides thetaiotaomicron
[19] = tested on: Ofloxacin-resistant Staphylococcus aureus; test: In vitro anti-bacterial activity (MIC90), ophthalmologic clinical bacteria isolates
Corynebacterium species = test: as above; conditions: Gram-positive
Moraxella species = test: as above; conditions: Gram-negative
[20] = tested on: Peptostreptococcus magnum (GAI 0664); test: In vitro anti-bacterial activity (MIC90), anaerobic reference bacteria
Haemophilus influenzae = test: In vitro anti-bacterial activity (MIC90), ophthalmologic clinical bacteria isolates; conditions: Gram-negative
[21] = tested on: Gentamycin-resistant Pseudomonas aeruginosa; test: as above
[22] = tested on: Bacillis subtilis (ATCC 6633); test: In vitro anti-bacterial activity (MIC90), Gram-positive reference strains
Protocol: as §1, with “μg/ml). Anti-bacterial activity of the compound having Formula III was tested against several Gram-positive reference bacteria strains and compared to the anti-bacterial activity of three commercially available antibiotics (nadifloxacin, ofloxacin, and sparfloxacin).” for “μg/ml).”

[23] = tested on: Streptococcus pneumoniae (IID 553); test: as above; conditions: IID553
Protocol: as §1, with “μg/ml). Anti-bacterial activity of the compound having Formula III was tested against several Gram-positive reference bacteria strains and compared to the anti-bacterial activity of three commercially available antibiotics (nadifloxacin, ofloxacin, and sparfloxacin).” for “μg/ml).”

[24] = tested on: Staphylococcus aureus (FDA 209P); test: as above; conditions: FDA209P
Protocol: as §1, with “μg/ml). Anti-bacterial activity of the compound having Formula III was tested against several Gram-positive reference bacteria strains and compared to the anti-bacterial activity of three commercially available antibiotics (nadifloxacin, ofloxacin, and sparfloxacin).” for “μg/ml).”

[25] = tested on: Sarcina lutea (ATCC 9341); test: as above; conditions: Micrococcus luteus, ATCC9341
Protocol: as §1, with “μg/ml). Anti-bacterial activity of the compound having Formula III was tested against several Gram-positive reference bacteria strains and compared to the anti-bacterial activity of three commercially available antibiotics (nadifloxacin, ofloxacin, and sparfloxacin).” for “μg/ml).”

[26] = tested on: Staphylococcus epidermidis (ATCC 12228); test: as above; conditions: ATCC12228
Protocol: as §1, with “μg/ml). Anti-bacterial activity of the compound having Formula III was tested against several Gram-positive reference bacteria strains and compared to the anti-bacterial activity of three commercially available antibiotics (nadifloxacin, ofloxacin, and sparfloxacin).” for “μg/ml).”

[27] = tested on: Staphylococcus aureus (ATCC 25933); test: as above; conditions: ATCC25933
Protocol: as §1, with “μg/ml). Anti-bacterial activity of the compound having Formula III was tested against several Gram-positive reference bacteria strains and compared to the anti-bacterial activity of three commercially available antibiotics (nadifloxacin, ofloxacin, and sparfloxacin).” for “μg/ml).”

[28] = tested on: Streptococcus pyogenes (IID 698); test: as above; conditions: IID698
Protocol: as §1, with “μg/ml). Anti-bacterial activity of the compound having Formula III was tested against several Gram-positive reference bacteria strains and compared to the anti-bacterial activity of three commercially available antibiotics (nadifloxacin, ofloxacin, and sparfloxacin).” for “μg/ml).”

[29] = tested on: Streptococcus pyogenes (Cook); test: as above
Protocol: as §1, with “μg/ml). Anti-bacterial activity of the compound having Formula III was tested against several Gram-positive reference bacteria strains and compared to the anti-bacterial activity of three commercially available antibiotics (nadifloxacin, ofloxacin, and sparfloxacin).” for “μg/ml).”

[30] = tested on: Streptococcus faecalis (ATCC 29212); test: as above; conditions: Enterococcus faecalis, ATCC29212
Protocol: as §1, with “μg/ml). Anti-bacterial activity of the compound having Formula III was tested against several Gram-positive reference bacteria strains and compared to the anti-bacterial activity of three commercially available antibiotics (nadifloxacin, ofloxacin, and sparfloxacin).” for “μg/ml).”

[31] = tested on: Streptococcus pneniae (IID 554); test: as above; conditions: IID554
Protocol: as §1, with “μg/ml). Anti-bacterial activity of the compound having Formula III was tested against several Gram-positive reference bacteria strains and compared to the anti-bacterial activity of three commercially available antibiotics (nadifloxacin, ofloxacin, and sparfloxacin).” for “μg/ml).”

[32] = tested on: Staphylococcus aureus (Smith); test: as above
Protocol: as §1, with “μg/ml). Anti-bacterial activity of the compound having Formula III was tested against several Gram-positive reference bacteria strains and compared to the anti-bacterial activity of three commercially available antibiotics (nadifloxacin, ofloxacin, and sparfloxacin).” for “μg/ml).”

[33] = tested on: Streptococcus faecalis (IFO 12964); test: as above; conditions: Enterococcus faecalis, IFO12964
Protocol: as §1, with “μg/ml). Anti-bacterial activity of the compound having Formula III was tested against several Gram-positive reference bacteria strains and compared to the anti-bacterial activity of three commercially available antibiotics (nadifloxacin, ofloxacin, and sparfloxacin).” for “μg/ml).”

[34] = tested on: Gentamycin-resistant Staphylococcus aureus; test: In vitro anti-bacterial activity (MIC90), ophthalmologic clinical bacteria isolates
[35] = tested on: Clostridium perfringens (KZ 210); test: microbe, parasite or virus in culture
[36] = tested on: Bacteroides vulgatus (GAI 0673); test: In vitro anti-bacterial activity (MIC90), anaerobic reference bacteria; conditions: Phocaeicola vulgatus
Staphylococcus aureus = test: In vitro anti-bacterial activity (MIC90), ophthalmologic clinical bacteria isolates; conditions: Gram-positive

SMILES: CC1COc2c(N3CCN(C)CC3)c(F)cc3c(=O)c(C(=O)O)cn1c23 (centres unmarked) [Ofloxacin]
- MIC90 [1]: 0.78 µg/mL (≈ 2.16 µM)
- MIC90 (Pseudomonas aeruginosa): 4 µg/mL (≈ 11.1 µM)
- MIC90 [2]: 2 µg/mL (≈ 5.53 µM)
- MIC90 [3]: 0.05 mμg/mL
- MIC90 [4]: 0.78 µg/mL (≈ 2.16 µM)
- MIC90 [5]: 0.39 µg/mL (≈ 1.08 µM)
- MIC90 [6]: 0.78 µg/mL (≈ 2.16 µM)
- MIC90 [7]: 1.56 µg/mL (≈ 4.32 µM)
- MIC90 [8]: 0.2 µg/mL (≈ 0.553 µM)
- MIC90 [9]: 0.39 µg/mL (≈ 1.08 µM)
- MIC90 [10]: 3.13 µg/mL (≈ 8.66 µM)
- MIC90 [11]: 0.05 µg/mL (≈ 0.138 µM)
- MIC90 [12]: 0.2 µg/mL (≈ 0.553 µM)
- MIC90 [13]: 1.56 µg/mL (≈ 4.32 µM)
- MIC90 (Streptococcus pneumoniae): 2 µg/mL (≈ 5.53 µM)
- MIC90 [14]: 0.78 µg/mL (≈ 2.16 µM)
- MIC90 [15]: 8 µg/mL (≈ 22.1 µM)
- MIC90 (Propionibacterium acnes): 1 µg/mL (≈ 2.77 µM)
- MIC90 [16]: 1.56 µg/mL (≈ 4.32 µM)
- MIC90 [17]: 1.56 µg/mL (≈ 4.32 µM)
- MIC90 [18]: 3.13 µg/mL (≈ 8.66 µM)
- MIC90 [19]: > 128 µg/mL
- MIC90 (Corynebacterium species): 32 µg/mL (≈ 88.6 µM)
- MIC90 (Moraxella species): 0.13 µg/mL (≈ 0.36 µM)
- MIC90 [20]: 0.39 µg/mL (≈ 1.08 µM)
- MIC90 (Haemophilus influenzae): ≤ 0.06 µg/mL
- MIC90 [21]: 64 µg/mL (≈ 177 µM)
- MIC90 [22]: 0.05 µg/mL (≈ 0.138 µM)
- MIC90 [23]: 1.56 µg/mL (≈ 4.32 µM)
- MIC90 [24]: 0.2 µg/mL (≈ 0.553 µM)
- MIC90 [25]: 3.13 µg/mL (≈ 8.66 µM)
- MIC90 [26]: 0.78 µg/mL (≈ 2.16 µM)
- MIC90 [27]: 0.39 µg/mL (≈ 1.08 µM)
- MIC90 [28]: 0.39 µg/mL (≈ 1.08 µM)
- MIC90 [29]: 0.78 µg/mL (≈ 2.16 µM)
- MIC90 [30]: 1.56 µg/mL (≈ 4.32 µM)
- MIC90 [31]: 1.56 µg/mL (≈ 4.32 µM)
- MIC90 [32]: 0.2 µg/mL (≈ 0.553 µM)
- MIC90 [33]: 1.56 µg/mL (≈ 4.32 µM)
- MIC90 [34]: 128 µg/mL (≈ 354 µM)
- MIC90 [35]: 0.78 µg/mL (≈ 2.16 µM)
- MIC90 [36]: 3.13 µg/mL (≈ 8.66 µM)
- MIC90 (Staphylococcus aureus): 32 µg/mL (≈ 88.6 µM)

SMILES: C[C@@H]1CN(c2c(F)c(N)c3c(=O)c(C(=O)O)cn(C4CC4)c3c2F)C[C@H](C)N1 [Sparfloxacin]
- MIC90 [1]: 0.78 µg/mL (≈ 1.99 µM)
- MIC90 [3]: 0.012 mμg/mL
- MIC90 [4]: 0.39 µg/mL (≈ 0.994 µM)
- MIC90 [5]: 0.2 µg/mL (≈ 0.51 µM)
- MIC90 [6]: 0.2 µg/mL (≈ 0.51 µM)
- MIC90 [7]: 0.39 µg/mL (≈ 0.994 µM)
- MIC90 [8]: 0.024 µg/mL (≈ 0.0612 µM)
- MIC90 [9]: 0.1 µg/mL (≈ 0.255 µM)
- MIC90 [10]: 1.56 µg/mL (≈ 3.98 µM)
- MIC90 [11]: 0.024 µg/mL (≈ 0.0612 µM)
- MIC90 [12]: 0.05 µg/mL (≈ 0.127 µM)
- MIC90 [13]: 0.78 µg/mL (≈ 1.99 µM)
- MIC90 [14]: 0.39 µg/mL (≈ 0.994 µM)
- MIC90 [16]: 0.78 µg/mL (≈ 1.99 µM)
- MIC90 [17]: 0.78 µg/mL (≈ 1.99 µM)
- MIC90 [18]: 0.78 µg/mL (≈ 1.99 µM)
- MIC90 [20]: 0.1 µg/mL (≈ 0.255 µM)
- MIC90 [22]: 0.024 µg/mL (≈ 0.0612 µM)
- MIC90 [23]: 0.39 µg/mL (≈ 0.994 µM)
- MIC90 [24]: 0.024 µg/mL (≈ 0.0612 µM)
- MIC90 [25]: 1.56 µg/mL (≈ 3.98 µM)
- MIC90 [26]: 0.2 µg/mL (≈ 0.51 µM)
- MIC90 [27]: 0.1 µg/mL (≈ 0.255 µM)
- MIC90 [28]: 0.2 µg/mL (≈ 0.51 µM)
- MIC90 [29]: 0.39 µg/mL (≈ 0.994 µM)
- MIC90 [30]: 0.39 µg/mL (≈ 0.994 µM)
- MIC90 [31]: 0.39 µg/mL (≈ 0.994 µM)
- MIC90 [32]: 0.05 µg/mL (≈ 0.127 µM)
- MIC90 [33]: 0.78 µg/mL (≈ 1.99 µM)
- MIC90 [35]: 0.39 µg/mL (≈ 0.994 µM)
- MIC90 [36]: 0.78 µg/mL (≈ 1.99 µM)
